# Measurements reported in patent US8501772B2, “3,8-diaminotetrahydroquinoline derivative” (Zeria Pharmaceutical Co., Ltd., priority 2008, dated 2013).
# Counter-ions that a name gives are not always drawn.
# Target: T1, human GHS-R1a (Homo sapiens, UniProt Q92847)
# T1 construct: expressed in transfected cells
# Test: Agonistic activity by use of a cell line stably expressing human GHS-R1a (intracellular calcium increase)
# Assay type: cell-based
# Conditions: hGHS-R1a/CHO cells, percent increase in intracellular calcium vs 100 nM ghrelin; read-out: GHS-R agonistic activity (EC50: nM)
# Method: CHO-K1 cells were transfected with human GHS-R1a genes, to thereby provide cells stably expressing GHS-R1a (hGHS-R1a/CHO), and the agonistic activity of each compound was evaluated by use of the cells based on percent increase in intracellular calcium as an index.
# The hGHS-R1a/CHO cells were inoculated at 6×10^4 cells/well in a 96-well plate (Clear bottom/Black plate, product of Corning), and cultured in Ham's F12 medium containing 10% fetal bovine serum at 37° C. and 5% CO2 for 18 hours. After culture, the medium was removed, and then the hGHS-R1a/CHO cells were cultured for two hours in a Hanks' balanced salt solution/HEPES (HBSS/HEPES, 100 μL) containing a calcium fluorescent indicator (4 μM Fluo-3AM, product of Dojin), 2 mM Probenecid, 0.1% Pluronic F-127, and 0.1% BSA, whereby the indicator was incorporated into the cells. After washing the cells, HBSS/HEPES (175 μL/well) containing 2 mM Probenecid and 0.1% BSA was added to the plate, and the fluorescence before and after addition of each test compound was determined by means of FLEXstation (Ex: 485 nm, Em: 525 nm, product of Molecular Devices). Each test compound was multi-fold diluted with dimethyl sulfoxide and then diluted with HBSS/HEPES containing 2 mM Probenecid, 0.04% Pluronic F-127, and 0.1% BSA, to thereby attain a final concentration of interest. The thus-diluted solution (25 μL/well) was added to the wells.
# Agonistic activity(%)=(A−B)/(C−D)×100
# A: Fluorescence intensity after addition of test compound
# B: Fluorescence intensity before addition of test compound
# C: Fluorescence intensity after addition of 100 nM ghrelin
# D: Fluorescence intensity before addition of ghrelin
# T1 sequence (Q92847 whole entry): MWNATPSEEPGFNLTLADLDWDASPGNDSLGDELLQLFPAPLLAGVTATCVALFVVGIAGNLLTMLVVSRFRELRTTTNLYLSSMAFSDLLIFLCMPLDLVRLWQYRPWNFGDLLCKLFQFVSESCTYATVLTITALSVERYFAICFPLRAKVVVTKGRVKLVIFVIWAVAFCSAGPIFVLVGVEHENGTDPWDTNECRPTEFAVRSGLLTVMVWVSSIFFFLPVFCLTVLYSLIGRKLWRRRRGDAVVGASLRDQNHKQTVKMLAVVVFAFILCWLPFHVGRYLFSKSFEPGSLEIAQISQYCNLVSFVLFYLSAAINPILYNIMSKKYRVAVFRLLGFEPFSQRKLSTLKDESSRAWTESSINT
row,EC50 [nM],Compound
1,1,"CC(C)C[C@@H](NC(=O)C(C)(C)N)C(=O)NC1Cc2cccc(N3C(=O)CCC3=O)c2N(Cc2ccccc2)C1=O (stereo partly drawn) [Example 37, (2R)-2-(2-Amino-2-methylpropanamido)-N-[1-benzyl-8-(2,5-dioxopyrrolidin-1-yl)-2-oxo-1,2,3,4-tetrahydroquinolin-3-yl]-4-methylpentanamide hydrochloride]"
2,149,"CC(C)C[C@@H](NC(=O)C(C)(C)N)C(=O)NC1Cc2ccccc2N(Cc2ccccc2)C1=O (stereo partly drawn) [Comp. Ex. 1, (2R)-2-(2-Amino-2-methylpropanamido)-N-(1-benzyl-2-oxo-1,2,3,4-tetrahydroquinolin-3-yl)-4-methylpentanamide hydrochloride, reference compound]"
3,0.9,"CC(C)C[C@@H](NC(=O)C(C)(C)N)C(=O)NC1Cc2cccc(N3CCCC3=O)c2N(Cc2ccccc2)C1=O (stereo partly drawn) [Example 35, (2R)-2-(2-Amino-2-methylpropanamido)-N-[1-benzyl-2-oxo-8-(2-oxopyrrolidin-1-yl)-1,2,3,4-tetrahydroquinolin-3-yl]-4-methylpentanamide hydrochloride]"
4,18.2,"CCN(CC)c1cccc2c1N(Cc1ccccn1)C(=O)C(NC(=O)[C@@H](CC(C)C)NC(=O)CC(C)(C)N)C2 (stereo partly drawn) [Example 47, (2R)-2-(3-Amino-3-methylbutanamido)-N-[8-(diethylamino)-2-oxo-1-(pyridin-2-ylmethyl)-1,2,3,4-tetrahydroquinolin-3-yl]-4-methylpentanamide hydrochloride]"
5,1.1,"CC(C)C[C@@H](NC(=O)C(C)(C)N)C(=O)NC1Cc2cccc(N3CCCCC3=O)c2N(Cc2ccccc2)C1=O (stereo partly drawn) [Example 36, (2R)-2-(2-Amino-2-methylpropanamido)-N-[1-benzyl-2-oxo-8-(2-oxopiperidin-1-yl)-1,2,3,4-tetrahydroquinolin-3-yl]-4-methylpentanamide hydrochloride]"
6,0.052,"Cn1cc(C[C@@H](NC(=O)C(C)(C)N)C(=O)NC2Cc3cccc(N4CCCC4=O)c3N(Cc3ccsc3)C2=O)c2ccccc21 (stereo partly drawn) [Example 34b, 2-amino-2-methyl-N-[(2R)-3-(1-methyl-1H-indol-3-yl)-1-oxo-1-[2-oxo-8-(2-oxopyrrolidin-1-yl)-1-(thiophen-3-ylmethyl)-1,2,3,4-tetrahydroquinolin-3-ylamino]propan-2-yl]propanamide hydrochloride]"
7,0.02,"CCn1cc(C[C@@H](NC(=O)C(C)(C)N)C(=O)NC2Cc3cccc(N4CCCC4=O)c3N(Cc3ccsc3)C2=O)c2ccccc21 (stereo partly drawn) [Example 34c, 2-amino-N-[(2R)-3-(1-ethyl-1H-indol-3-yl)-1-oxo-1-[2-oxo-8-(2-oxopyrrolidin-1-yl)-1-(thiophen-3-ylmethyl)-1,2,3,4-tetrahydroquinolin-3-ylamino]propan-2-yl]-2-methylpropanamide hydrochloride]"
8,0.07,"CCCn1cc(C[C@@H](NC(=O)C(C)(C)N)C(=O)NC2Cc3cccc(N4CCCC4=O)c3N(Cc3ccsc3)C2=O)c2ccccc21 (stereo partly drawn) [Example 34e, 2-amino-2-methyl-N-[(2R)-1-oxo-1-[2-oxo-8-(2-oxopyrrolidin-1-yl)-1-(thiophen-3-ylmethyl)-1,2,3,4-tetrahydroquinolin-3-ylamino]-3-(1-propyl-1H-indol-3-yl)propan-2-yl]propanamide hydrochloride]"
9,1.13,"CC(C)n1cc(C[C@@H](NC(=O)C(C)(C)N)C(=O)NC2Cc3cccc(N4CCCC4=O)c3N(Cc3ccsc3)C2=O)c2ccccc21 (stereo partly drawn) [Example 34f, 2-amino-N-[(2R)-3-(1-isopropyl-1H-indol-3-yl)-1-oxo-1-[2-oxo-8-(2-oxopyrrolidin-1-yl)-1-(thiophen-3-ylmethyl)-1,2,3,4-tetrahydroquinolin-3-ylamino]propan-2-yl]-2-methylpropanamide hydrochloride]"
10,80,"CC(=O)Nc1cccc2c1N(Cc1ccccn1)C(=O)C(NC(=O)[C@@H](CC(C)C)NC(=O)C(C)(C)N)C2 (stereo partly drawn) [Example 40, (2R)—N-(8-Acetamido-2-oxo-1-(pyridin-2-ylmethyl)-1,2,3,4-tetrahydroquinolin-3-yl)-2-(2-amino-2-methylpropanamido)-4-methylpentanamide]"
11,0.2,"CC[C@@](C)(N)C(=O)N[C@H](Cc1cn(C)c2ccccc12)C(=O)NC1Cc2cccc(N3CCCC3=O)c2N(Cc2ccsc2)C1=O (stereo partly drawn) [Example 34i, (2R)-2-amino-2-methyl-N-[(2R)-3-(1-methyl-1H-indol-3-yl)-1-oxo-1-[2-oxo-8-(2-oxopyrrolidin-1-yl)-1-(thiophen-3-ylmethyl)-1,2,3,4-tetrahydroquinolin-3-ylamino]propan-2-yl]butanamide hydrochloride]"
12,0.22,"CC(C)(N)C(=O)N[C@H](Cc1cn(CCF)c2ccccc12)C(=O)NC1Cc2cccc(N3CCCC3=O)c2N(Cc2ccsc2)C1=O (stereo partly drawn) [Example 34d, 2-amino-N-[(2R)-3-[1-(2-fluoroethyl)-1H-indol-3-yl]-1-oxo-1-[2-oxo-8-(2-oxopyrrolidin-1-yl)-1-(thiophen-3-ylmethyl)-1,2,3,4-tetrahydroquinolin-3-ylamino]propan-2-yl]-2-methylpropanamide hydrochloride]"
13,0.45,"CC(C)C[C@@H](NC(=O)C(C)(C)N)C(=O)NC1Cc2cccc(N3C(=O)CCC3O)c2N(Cc2ccsc2)C1=O (stereo partly drawn) [Example 66, (2R)-2-(2-amino-2-methylpropanamido)-N-(8-(2-hydroxy-5-oxopyrrolidin-1-yl)-2-oxo-1-(thiophen-3-ylmethyl)-1,2,3,4-tetrahydroquinolin-3-yl)-4-methylpentanamide]"
14,< 0.1,"CC(C)(N)C(=O)N[C@H](Cc1c[nH]c2ccccc12)C(=O)NC1Cc2cccc(N3CCCC3=O)c2N(Cc2ccsc2)C1=O (stereo partly drawn) [Example 25l, N-[(2R)-3-(1H-indol-3-yl)-1-oxo-1-[2-oxo-8-(2-oxopyrrolidin-1-yl)-1-(thiophen-3-ylmethyl)-1,2,3,4-tetrahydroquinolin-3-ylamino]propan-2-yl]-2-amino-2-methylpropanamide]"
15,0.1,"CC(C)(N)C(=O)N[C@H](Cc1c[nH]c2ccccc12)C(=O)NC1Cc2cccc(N3CCCC3=O)c2N(Cc2ccccc2)C1=O (stereo partly drawn) [Example 38, 2-Amino-N-[(2R)-1-[1-benzyl-2-oxo-8-(2-oxopyrrolidin-1-yl)-1,2,3,4-tetrahydroquinolin-3-ylamino]-3-(1H-indol-3-yl)-1-oxopropan-2-yl]-2-methylpropanamide hydrochloride]"
16,11.3,"CN(C)c1cccc2c1N(Cc1ccccn1)C(=O)C(NC(=O)[C@H](NC(=O)C(C)(C)N)c1ccccc1)C2 (stereo partly drawn) [Example 41, 2-Amino-N-((1R)-2-(8-(dimethylamino)-2-oxo-1-(pyridin-2-ylmethyl)-1,2,3,4-tetrahydroquinolin-3-ylamino)-2-oxo-1-phenylethyl)-2-methylpropanamide hydrochloride]"
17,2.75,"CC(C)C[C@@H](NC(=O)[C@@H](C)N)C(=O)NC1Cc2cccc(N3CCCC3=O)c2N(Cc2ccsc2)C1=O (stereo partly drawn) [Example 34g, (2R)-2-((R)-2-aminopropanamido)-4-methyl-N-[2-oxo-8-(2-oxopyrrolidin-1-yl)-1-(thiophen-3-ylmethyl)-1,2,3,4-tetrahydroquinolin-3-yl]pentanamide hydrochloride]"
18,1.5,"CC(C)C[C@@H](NC(=O)C(C)(C)N)C(=O)NC1Cc2cccc(N3CCCC3=O)c2N(Cc2cccs2)C1=O (stereo partly drawn) [Example 34m, (2R)-2-(2-amino-2-methylpropanamido)-4-methyl-N-[2-oxo-8-(2-oxopyrrolidin-1-yl)-1-(thiophen-2-ylmethyl)-1,2,3,4-tetrahydroquinolin-3-yl]pentanamide hydrochloride]"
19,4.13,"CC[C@](C)(N)C(=O)N[C@H](CC(C)C)C(=O)NC1Cc2cccc(N3CCCC3=O)c2N(Cc2ccsc2)C1=O (stereo partly drawn) [Example 25j, (2R)-2-((S)-2-amino-2-methylbutanamido)-4-methyl-N-[2-oxo-8-(2-oxopyrrolidin-1-yl)-1-(thiophen-3-ylmethyl)-1,2,3,4-tetrahydroquinolin-3-yl]pentanamide]"

row,Compound,EC50 [nM]
1,"CCN(CC)c1cccc2c1N(Cc1ccccn1)C(=O)C(NC(=O)[C@@H](CC(C)C)NC(=O)[C@H](N)Cc1ccc(O)cc1)C2 (stereo partly drawn) [Example 39, (2R)-2-((R)-2-Amino-3-(4-hydroxyphenyl)propanamido)-N-(8-(diethylamino)-2-oxo-1-(pyridin-2-ylmethyl)-1,2,3,4-tetrahydroquinolin-3-yl)-4-methylpentanamide hydrochloride]",12.9
2,"CC(C)C[C@@H](NC(=O)C(C)(C)N)C(=O)NC1Cc2cccc(N3CCCC3=O)c2N(Cc2ccsc2)C1=O (stereo partly drawn) [Example 34k, (2R)-2-(2-amino-2-methylpropanamido)-4-methyl-N-[2-oxo-8-(2-oxopyrrolidin-1-yl)-1-(thiophen-3-ylmethyl)-1,2,3,4-tetrahydroquinolin-3-yl]pentanamide(R)-(−)-mandelate]",0.47
3,"CC(C)C[C@@H](NC(=O)C(C)(C)N)C(=O)NC1Cc2cccc(N3CCCC3=O)c2N(Cc2ccsc2)C1=O (stereo partly drawn) [Example 34l, (2R)-2-(2-amino-2-methylpropanamido)-4-methyl-N-[2-oxo-8-(2-oxopyrrolidin-1-yl)-1-(thiophen-3-ylmethyl)-1,2,3,4-tetrahydroquinolin-3-yl]pentanamide(S)-(+)-mandelate]",0.37
